Test [1] relates to Hgsnat^P304L MPS IIIC mice. In words: Open Field test. Format: in vivo, mouse. Particulars: 6-month-old Hgsnat^P311L (P304L) mice.
In test [2] the test system is primary hippocampal neurons of Hgsnat^P304L mice. As to the kind of experiment: Synaptic protein markers and BDNF in primary hippocampal neuronal cultures (immunocytochemistry). Format: cell-based, mouse. Particulars: 10 μM in culture media. The protocol:
Model and Developmental time points: Primary hippocampal neuronal cultures established from E16 embryos of […] mice.
Method: The hippocampal neurons were cultured until DIV (Day In Vitro) 21 and 50% of media was changed every 3 days. AVP6 at a final concentration of 10 μM was added to the media when plating and during every media change. At DIV21 neurons were fixed and analysed by immunohistochemistry using markers of dendrites (MAP), axons (neurofilament protein, NF-H), and synaptic transmission (PSD95 and BDNF). Synaptic spine architecture and additional protein synaptic markers (Vglut/PSD95 and VAMP) will be studied.
Primary hippocampal neurons were cultured from the brains of embryo at gestational day 16 (E16). The hippocampi were isolated and treated with 2.5% trypsin solution (Sigma-Aldrich, T4674) for 15 min at 37° C. The cells were washed 3 times with Hank's Balanced Salt Solution (HBSS, Gibco, 14025-092) and mechanically dissociated by pipetting, using glass Pasteur pipettes with 3 different opening sizes (3, 2 and 1 mm). Then, they were counted with the viability dye trypan blue (ThermoFisher Scientific, 15250061), using a hemocytometer, and resuspended in Neurohasal media (Gibco, 21103-049) containing L-glutamine, B27, N2, penicillin and streptomycin. […]
Cultured mouse neurons at day in vitro (DIV) 21 or iPSC-derived neurons at D1V21 and DIV28 were fixed in 4% paraformaldehyde and 4% sucrose solution in PBS, pH 7.4, for 20 min. […] Coverslips were washed 3 times again in PBS and mounted on slides using ProLong Gold mounting medium, containing 4′,6-dianiidino-2-phenylindole (DAPI; Invitrogen, Cat #P36935), and analyzed by a Leica SP8-DSL or Leica TCS SPE confocal microscopes (×63 glycerol immersion objectives, N.A. 1.4). Images were processed with Leica Application Suite X (LAS-X) software or Photoshop 2021 (Adobe) and quantified using Fiji-ImageJ 1.50i software (National Institutes of Health, Bethesda, MD, USA). […] Soma or axon areas were defined by TUBB3, NEUN, or NF-M staining and, within this area, the appropriate markers were measured establishing a threshold. […]

Test [3] concerns CA1 pyramidal neurons in acute hippocampal slices from Hgsnat^Geo mice. As to the kind of experiment: Miniature inhibitory postsynaptic currents (mIPSC), whole cell voltage clamp in acute hippocampal slices. Particulars: 10 μM bath application, P14-20. The test is classed as cell-based, mouse. The method, then: Method: Whole cell voltage clamp electrophysiology recordings (miniature synaptic currents) were conducted on CA1 pyramidal neurons in acute hippocampal slices.
Acute hippocampal slices were prepared as follows. Briefly, animals were anaesthetized deeply with isoflurane and decapitated. The brain was dissected carefully and transferred rapidly into an ice-cold (0-4° C.) solution containing the following (in mM): 250 sucrose, 2 KCl, 1.25 NaH2PO4, 26 NaHCO3, 7 MgSO4, 0.5 CaCl2 and 10 glucose, pH 7.4. […] Whole-cell patch-clamp recordings were obtained from single cells in voltage- or current-clamp mode and only 1 cell per slice was recorded to enable post-hoc identification and immunohistochemical processing. […]
After obtaining whole cell configuration, passive membrane properties were monitored for 5 min and current clamp recordings were done to measure action potential characteristics. […] Cells were voltage clamped at −70 mV for mEPSCs recording and then held at 0 mV (calculated from the reversal potential of Cl) for mIPSCs recording. […] Both mEPSCs and mIPSCs were recorded for 7 min and a running template on a stable baseline (minimum of 30 events) was used for the analysis of miniature events on MiniAnalysis. […]

Where [4] appears, read: single intranasal 10 μg/kg (low dose).
Setting [5] is: single intranasal 500 μg/kg (high dose).
The mark [6] stands for this setting: DIV21, Hgsnat^P311L (P304L) neurons.

Experimental findings from patent US20240043473A1, “NOOTROPIC PEPTIDES FOR TREATING LYSOSOMAL STORAGE DISEASES” (Phoenix Nest Inc., priority 2021, published 2024) are described below.

“Also recorded” adds a separate entry of the source. No end group written: not given here.

Take “AVP6: N-terminally acetylated Semax, a nootropic peptide having the amino acid sequence of MEHFPGP (SEQ ID NO:1) (Ac-MEHFPGP)”: in test [1] (setting [4]), the “hyperactivity, Open Field” value is reported as “failed to rescue hyperactivity or reduced anxiety; also recorded: do not rescue hyperactivity” and the “reduced anxiety, Open Field” value is recorded as “failed to rescue hyperactivity or reduced anxiety”. For the same substance, in test [1] (setting [5]), the “hyperactivity, Open Field” value is “failed to rescue hyperactivity or reduced anxiety; also recorded: do not rescue hyperactivity” and the “reduced anxiety, Open Field” value is recorded as “failed to rescue hyperactivity or reduced anxiety”. Also, in test [2] (setting [6]), the “Synapsin 1-positive puncta” value is given as “increase in Synapsin 1-positive puncta; also recorded: rescues deficit of both proteins” and the “number of BDNF-positive punctae” value is listed as “increase in the number of BDNF-positive punctae; also recorded: rescues deficit of both proteins”. Also, in test [2] (Hgsnat^P304L neurons), the “levels of VGLUT1+, PSD-95+, SYN1+ and BDNF+ puncta” value is “rescues reduced levels of synaptic markers; also recorded: significantly increased”. The “mIPSC amplitude and frequency deficits” value in test [3] was “did not recover deficits in mIPSC amplitude and frequency; also recorded: did not increase frequencies or amplitudes of mIPSC; also recorded: does not increase”.
